# Experimental data taken from patent US12589090B2, “Compounds and methods for the treatment of degenerative disorders” (Aquilus Pharmaceuticals, Inc., priority 2019, dated 2026).
# Read-outs that look alike come from different tables or passages of the source.
# Columns and labels:
# [1] = Steady state oral/IV rat PK and compound penetration into spine and brain (Example 16); assay type: in vivo, Sprague-Dawley rats; settings: for concentration at 5 h / AUC(0-inf) / AUC(0-t) / half-life / Cmax: male, Sprague-Dawley; for AUC(0-inf) / AUC(0-t) / half-life / Cmax: plasma
# Description: It is important if one is observing biochemical effects in the spine and brain that one is able to show clear evidence that the compound being tested is in fact able to penetrate to those areas of the body. The present example orally doses compound 118 once per day (SID) for three days to a series of rats. On the third after dosing the rats were then sacrificed after taking blood samples and the level of compound measured in the spine and brain.
# Procedure: Twelve (12) male Sprague-Dawley rats were used. Fasting was conducted at least 16 hours prior to dose administration. The animals were placed into 4 groups of 3 animals per group. There was one intravenous (IV) group and three oral gavage (PO) groups (10 mg/Kg, 20 mg/Kg & 40 mg/Kg). The oral (PO) formulation for Groups 2-4 were prepared on the day of dosing at a target concentration of 0.5 mg/mL in 0.5% Methylcellulose (400 cps) to produce a white, homogeneous suspension. The study design is outlined in Table 4:
# […] […] All blood samples were immediately placed on ice until processing. Whole blood samples were centrifuged at 2200×g for 10 minutes in a refrigerated centrifuge (5±3° C.) to isolate plasma. The plasma samples were transferred to individual polypropylene vials and immediately placed on dry ice before storage at nominally −20±5° C. The plasma samples sometime later were then thawed and extracted and analyzed by high pressure liquid chromatography (HPLC) coupled to Mass Spectrometery (MS). Pharmacokinetic parameters were estimated using WinNonlin® pharmacokinetic software (Version No. 5.2.1) using a non-compartmental approach consistent with the PO route of administration. The rodents were then sacrificed. On Day 3, five hours after dosing, animals were euthanized and whole brain and spine were removed, washed with saline and flash frozen until storage at nominally −70° C. before transfer for concentration analysis. The plasma, brain and spinal tissue samples were analyzed for test article concentration using a Research Grade LC-MS/MS Assay.
# [2] = In-vivo oral PK of Compound 118 in SOD-1 mice (Example 19); design: species or system SOD-1-G93A (SOD-1) mice; settings: for AUC / Cmax: SOD-1-G93A, mouse, po, PO 200 mg/Kg for 3 days
# Procedure: The present example orally doses compound 118 once per day (SID) or twice per day (BID) for three days to a series of mice that have overexpression for the protein copper-zinc superoxide dismutase 1. Compound 118 was orally dosed in SOD-1-G93A (SOD-1) mice in a PK study. In summary, SOD-1 mice (At P100±4 days of age) received twice daily (BID) or once daily (SID) oral administration of 200 mg/Kg Compound 118 (as an aqueous suspension in 0.5% methylcellulose) for 3 days (Table 6). Plasma was collected from the tail vein at baseline (pre-dose), 15 min, 30 min, 1 h, 2 h, 4 h post-last PO dose on the third day. One animal from each group was euthanized 2 hrs. post dose on the third day of dosing where plasma, spinal cord, and brain tissue was collected post-mortem. The remaining 3 animals per group was euthanized six hours after the final dose on the third day, plasma, spinal cord, and brain tissue was then collected post-mortem. […] There was a significant difference in clearance of Compound 118 within plasma between male and female SOD-1 mice. […] Given the sex difference in clearance, it will be necessary to increase the amount that male SOD-1 mice are dosed compared to females SOD-1 mice in order maintain parity in exposure between the sexes.
# Dissociation constant = assay type: physicochemical
# [3] = rat, iv, 1 mg/kg, DAY 1, 1 mg/kg IV
# [4] = rat, iv, 1 mg/kg, DAY 2, 1 mg/kg IV once per day
# [5] = rat, iv, 1 mg/kg, DAY 3, 1 mg/kg IV once per day
# [6] = rat, po, 10 mg/kg, DAY 1, 10 mg/kg PO
# [7] = rat, po, 10 mg/kg, DAY 2, 10 mg/kg PO once per day
# [8] = rat, po, 10 mg/kg, DAY 3, 10 mg/kg PO once per day
# [9] = rat, po, 20 mg/kg, DAY 1, 20 mg/kg PO
# [10] = rat, po, 20 mg/kg, DAY 2, 20 mg/kg PO once per day
# [11] = rat, po, 20 mg/kg, DAY 3, 20 mg/kg PO once per day
# [12] = rat, po, 40 mg/kg, DAY 1, 40 mg/kg PO
# [13] = rat, po, 40 mg/kg, DAY 2, 40 mg/kg PO once per day
# [14] = rat, po, 40 mg/kg, DAY 3, 40 mg/kg PO once per day
# [15] = female, plasma, 200 mg/kg, Female SOD-1 mice, BID
# [16] = female, plasma, 200 mg/kg, Female SOD-1 mice, SID
# [17] = male, plasma, 200 mg/kg, Male SOD-1 mice, BID
# [18] = male, plasma, 200 mg/kg, Male SOD-1 mice, SID
smiles,measurement,setting,value
"[2H]C([2H])([2H])c1ccc(C#Cc2ccc(S(=O)(=O)N[C@H](Cc3c[nH]c4ccccc34)C(=O)O)s2)cc1 [Compound 118, (R)-3-(1H-Indol-3-yl)-2-[5-(4-trideuteromethyl-phenylethynyl)-thiophene-2-sulfonylamino]-propionic acid-(D3, 98%)]",dose linearity in plasma,"[1]; 10, 20 and 40 mg/Kg oral doses, rat",exhibited dose linearity in plasma
same,concentration at 5 h,"[1]; brain, 10-40 mg/Kg daily oral dose, Day 3, rat, highest level at 40 mg/Kg, read-out: Compound level in the brain",30 to 84 ng/mL
same,concentration at 5 h,"[1]; rat, brain, Day 3, five hours after dosing, 10 mg/kg PO once per day, read-out: Brain",30.2 ng/mL
same,concentration at 5 h,"[1]; rat, brain, Day 3, five hours after dosing, 20 mg/kg PO once per day, read-out: Brain",42.1 ng/mL
same,concentration at 5 h,"[1]; rat, brain, Day 3, five hours after dosing, 40 mg/kg PO once per day, read-out: Brain",84.6 ng/mL
same,AUC(0-inf),[1]; [3],1820 ng·h/mL
same,AUC(0-t),[1]; [3],1810 ng·h/mL
same,half-life,[1]; [3],0.97 h
same,AUC(0-inf),[1]; [4],1170 ng·h/mL
same,AUC(0-t),[1]; [4],1170 ng·h/mL
same,half-life,[1]; [4],0.936 h
same,AUC(0-inf),[1]; [5],1720 ng·h/mL
same,AUC(0-t),[1]; [5],1650 ng·h/mL
same,half-life,[1]; [5],0.89 h
same,AUC(0-inf),[1]; [6],3880 ng·h/mL
same,AUC(0-t),[1]; [6],3770 ng·h/mL
same,Cmax,[1]; [6],1170 ng/mL
same,half-life,[1]; [6],1.29 h
same,AUC(0-inf),[1]; [7],4480 ng·h/mL
same,AUC(0-t),[1]; [7],4390 ng·h/mL
same,Cmax,[1]; [7],1340 ng/mL
same,half-life,[1]; [7],1.24 h
same,AUC(0-inf),[1]; [8],12600 ng·h/mL
same,AUC(0-t),[1]; [8],4010 ng·h/mL
same,Cmax,[1]; [8],1450 ng/mL
same,half-life,[1]; [8],1.59 h
same,AUC(0-inf),[1]; [9],6520 ng·h/mL
same,AUC(0-t),[1]; [9],6410 ng·h/mL
same,Cmax,[1]; [9],2140 ng/mL
same,half-life,[1]; [9],1.2 h
same,AUC(0-inf),[1]; [10],4730 ng·h/mL
same,AUC(0-t),[1]; [10],4650 ng·h/mL
same,Cmax,[1]; [10],2150 ng/mL
same,half-life,[1]; [10],1.28 h
same,AUC(0-inf),[1]; [11],10100 ng·h/mL
same,AUC(0-t),[1]; [11],8820 ng·h/mL
same,Cmax,[1]; [11],3850 ng/mL
same,half-life,[1]; [11],1.02 h
same,AUC(0-inf),[1]; [12],15800 ng·h/mL
same,AUC(0-t),[1]; [12],15600 ng·h/mL
same,Cmax,[1]; [12],5020 ng/mL
same,half-life,[1]; [12],1.01 h
same,AUC(0-inf),[1]; [13],12200 ng·h/mL
same,AUC(0-t),[1]; [13],12200 ng·h/mL
same,Cmax,[1]; [13],5570 ng/mL
same,half-life,[1]; [13],1.02 h
same,AUC(0-inf),[1]; [14],15800 ng·h/mL
same,AUC(0-t),[1]; [14],15600 ng·h/mL
same,Cmax,[1]; [14],5020 ng/mL
same,half-life,[1]; [14],1.01 h
same,concentration at 5 h,"[1]; rat, spine, Day 3, five hours after dosing, 10 mg/kg PO once per day, read-out: Spine",15.6 ng/mL
same,concentration at 5 h,"[1]; rat, spine, Day 3, five hours after dosing, 20 mg/kg PO once per day, read-out: Spine",18.3 ng/mL
same,concentration at 5 h,"[1]; rat, spine, Day 3, five hours after dosing, 40 mg/kg PO once per day, read-out: Spine",31 ng/mL
same,concentration at 5 h,"[1]; spine, 10-40 mg/Kg daily oral dose, Day 3, rat, highest level at 40 mg/Kg, read-out: Compound level in the spine",15 to 31 ng/mL
same,AUC in Female SOD-1 mice relative to male SOD-1 mice,"[2]; 200 mg/Kg PO, plasma",3-4 times
same,concentration in the spinal cord,"[2]; SOD-1 mice, 200 mg/Kg PO, T=2 hour from last dose on third day",200-400 ng of AQU-118/gram spinal tissue
same,oral bioavailability in plasma,"[2]; SOD-1 mice, 200 mg/Kg PO, 200 mg/kg",good oral bioavailability
same,oral bioavailability in plasma,"[2]; SOD-1 mice, 200 mg/Kg PO, listed as AQU-118, 200 mg/kg",good bioavailability in plasma
same,AUC,[2]; [15],394000 ng·h/mL
same,Cmax,[2]; [15],111000 ng/mL
same,AUC,[2]; [16],342000 ng·h/mL
same,Cmax,[2]; [16],96000 ng/mL
same,AUC,[2]; [17],115000 ng·h/mL
same,Cmax,[2]; [17],39200 ng/mL
same,AUC,[2]; [18],121000 ng·h/mL
same,Cmax,[2]; [18],44500 ng/mL
same,dissociation constant,Dissociation constant,around 3.4
